Measured values: patent US20230002374A1, “GPR52 MODULATOR COMPOUNDS” (Heptares Therapeutics Limited, priority 2019, published 2023)

Target: human GPR52 (Homo sapiens, UniProt Q9Y2T5)
Test: GPR52 Agonist Functional cAMP Assay;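 note: HEKf cells transduced with GPR52 BacMam for 24 h, 2000 per well, exposed to compounds 30 min at 37° C with 0.5 mM IBMX, cAMP read by HTRF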
Settings: for Emax: maximal response normalised to DMSO (0%) and maximal compound 7m (J. Med. Chem., 2014, 57, 5226) response (100%); for EC50: pEC50 average, HEKf cells infected with human GPR52 BacMam virus, cAMP HTRF, 30 min at 37° C.
Procedure: Following BacMam infection, cells were pelleted by centrifugation (335 g, 5 min), resuspended in cell freezing medium (Sigma) and frozen at −150° C. until required. On experiment day, 25 nL GPR52 compound dilutions, prepared in DMSO, were stamped onto proxiplates (PerkinElmer) by a LabCyte ECHO acoustic dispenser. Frozen cells were thawed and resuspended in assay stimulation buffer (Cisbio) containing 0.5 mM 3-iso-butyl-1-methylxanthine (IBMX, Sigma) to achieve a density of 2000 cells per well. 10 μl cells were added to assay plates using a Multidrop Combi Reagent Dispenser (ThermoFisher) before centrifugation (335 g, 1 min). Cells were incubated with compounds at 37° C. for 30 min prior to addition of cAMP detection reagents (HiRange cAMP kit, Cisbio) which were prepared according to the manufacturer's instructions. Plates were shaken for 1 h at room temperature before reading on a PHERAstar FS plate reader (BMG Labtech) using standard HTRF settings.

Sequence of human GPR52 (Q9Y2T5 whole entry): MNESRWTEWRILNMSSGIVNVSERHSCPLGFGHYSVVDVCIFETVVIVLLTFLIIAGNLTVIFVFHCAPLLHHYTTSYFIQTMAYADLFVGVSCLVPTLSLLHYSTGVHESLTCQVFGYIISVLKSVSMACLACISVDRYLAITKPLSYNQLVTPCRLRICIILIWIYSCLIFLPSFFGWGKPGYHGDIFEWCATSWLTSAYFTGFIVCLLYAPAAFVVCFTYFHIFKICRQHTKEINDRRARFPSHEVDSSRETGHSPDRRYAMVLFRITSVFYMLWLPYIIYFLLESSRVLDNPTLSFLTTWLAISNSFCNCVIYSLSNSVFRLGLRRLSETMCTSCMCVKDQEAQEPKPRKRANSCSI

O=C1NCCc2c1cnn2-c1ccnc(Cc2cc(Cl)cc(C(F)(F)F)c2)c1 [Example 27, 1-(2-(3-chloro-5-(trifluoromethyl)benzyl)pyridin-4-yl)-1,5,6,7-tetrahydro-4H-pyrazolo[4,3-c]pyridin-4-one] was tested, and the Emax was 90% and the EC50 was 79.4 nM.
Work on O=C1c2cnn(-c3ccnc(Cc4cc(F)cc(C(F)(F)F)c4)c3)c2CCN1CCO [Example 105, 1-(2-(3-fluoro-5-(trifluoromethyl)benzyl)pyridin-4-yl)-5-(2-hydroxyethyl)-1,5,6,7-tetrahydro-4H-pyrazolo[4,3-c]pyridin-4-one] yielded an Emax of 97% and an EC50 of 63.1 nM.
O=C1NCCc2c1cnn2-c1cc(Oc2cc(F)cc(C(F)(F)F)c2)ccn1 [Example 18, 1-(4-(3-fluoro-5-(trifluoromethyl)phenoxy)pyridin-2-yl)-1,5,6,7-tetrahydro-4H-pyrazolo[4,3-c]pyridin-4-one] gave an Emax of 82% and an EC50 of 79.4 nM.
Cc1nn(-c2ccnc(Cc3cc(F)c(Cl)c(C(F)(F)F)c3)c2)c2c1C(=O)NCC2 [Example 87, 1-(2-(4-chloro-3-fluoro-5-(trifluoromethyl)benzyl)pyridin-4-yl)-3-methyl-1,5,6,7-tetrahydro-4H-pyrazolo[4,3-c]pyridin-4-one] showed an Emax of 95% and an EC50 of 6.31 nM.
Cc1nn(-c2ccnc(Cc3cc(F)c(Cl)c(F)c3)c2)c2c1C(=O)NCC2 [Example 90, 1-(2-(4-chloro-3,5-difluorobenzyl)pyridin-4-yl)-3-methyl-1,5,6,7-tetrahydro-4H-pyrazolo[4,3-c]pyridin-4-one] was tested, and the Emax was 87% and the EC50 was 20 nM.
O=C1NCCc2c1cnn2-c1cc(Cc2cc(F)cc(C(F)(F)F)c2)ncn1 [Example 56, 1-(6-(3-fluoro-5-(trifluoromethyl)benzyl)pyrimidin-4-yl)-1,5,6,7-tetrahydro-4H-pyrazolo[4,3-c]pyridin-4-one] showed an Emax of 98% and an EC50 of 126 nM.
Molecule Cc1nn(-c2cc(C(O)c3cc(F)cc(C(F)(F)F)c3)ccn2)c2c1C(=O)NCC2 (single isomer, unassigned) [118 Isomer 1, 1-(4-((3-fluoro-5-(trifluoromethyl)phenyl)(hydroxy)methyl)pyridin-2-yl)-3-methyl-1,5,6,7-tetrahydro-4H-pyrazolo[4,3-c]pyridin-4-one] has an Emax of 94% and an EC50 of 126 nM.
With CC1CNC(=O)c2cnn(-c3ccnc(Cc4cc(F)cc(C(F)(F)F)c4)c3)c21 (centres unmarked) [Example 50, 1-(2-(3-fluoro-5-(trifluoromethyl)benzyl)pyridin-4-yl)-7-methyl-1,5,6,7-tetrahydro-4H-pyrazolo[4,3-c]pyridin-4-one] the Emax was 95% and the EC50 was 39.8 nM.
Work on N#Cc1nn(-c2ccnc(Cc3cc(F)cc(C(F)(F)F)c3)c2)c2c1C(=O)NCC2 [Example 115, 1-(2-(3-fluoro-5-(trifluoromethyl)benzyl)pyridin-4-yl)-4-oxo-4,5,6,7-tetrahydro-1H-pyrazolo[4,3-c]pyridine-3-carbonitrile] yielded an Emax of 91% and an EC50 of 25.1 nM.
Molecule O=C1NCCc2c1cnn2-c1ccnc(Cc2cccc(C(F)(F)F)c2F)c1 [Example 29, 1-(2-(2-fluoro-3-(trifluoromethyl)benzyl)pyridin-4-yl)-1,5,6,7-tetrahydro-4H-pyrazolo[4,3-c]pyridin-4-one] has an Emax of 57% and an EC50 of 2510 nM.
Molecule Cc1nn(-c2ccnc(Cc3cc(F)cc(C#N)c3)c2)c2c1C(=O)NCC2 [Example 85, 3-fluoro-5-((4-(3-methyl-4-oxo-4,5,6,7-tetrahydro-1H-pyrazolo[4,3-c]pyridin-1-yl)pyridin-2-yl)methyl)benzonitrile] has an Emax of 96% and an EC50 of 63.1 nM.
O=C1NCCc2c1cnn2-c1ccnc(Cc2cc(F)cc(C3CC3)c2)c1 [Example 53, 1-(2-(3-cyclopropyl-5-fluorobenzyl)pyridin-4-yl)-1,5,6,7-tetrahydro-4H-pyrazolo[4,3-c]pyridin-4-one] showed an Emax of 100% and an EC50 of 6.31 nM.
Work on O=C1NCCc2nn(-c3cc(Cc4cc(F)cc(C(F)(F)F)c4)ccn3)nc21 [Example 98, 2-(4-(3-fluoro-5-(trifluoromethyl)benzyl)pyridin-2-yl)-2,5,6,7-tetrahydro-4H-[1,2,3]triazolo[4,5-c]pyridin-4-one] yielded an Emax of 92% and an EC50 of 158 nM.
For Cc1nn(-c2ccnc(Cc3ccc(OC(F)F)nc3)c2)c2c1C(=O)NCC2 [Example 94, 1-(2-((6-(difluoromethoxy)pyridin-3-yl)methyl)pyridin-4-yl)-3-methyl-1,5,6,7-tetrahydro-4H-pyrazolo[4,3-c]pyridin-4-one], the Emax was 78% and the EC50 was 398 nM.
Work on Cc1nn(-c2ccnc(Cc3cc(F)c(F)c(F)c3)c2)c2c1C(=O)NCC2 [Example 77, 3-methyl-1-(2-(3,4,5-trifluorobenzyl)pyridin-4-yl)-1,5,6,7-tetrahydro-4H-pyrazolo[4,3-c]pyridin-4-one] yielded an Emax of 95% and an EC50 of 15.8 nM.
In the case of O=C1NCCc2c1cnn2-c1cc(Cc2cc(F)cc(C(F)F)c2)ccn1 [Example 102, 1-(4-(3-(difluoromethyl)-5-fluorobenzyl)pyridin-2-yl)-1,5,6,7-tetrahydro-4H-pyrazolo[4,3-c]pyridin-4-one], the Emax is reported as 98% and the EC50 is reported as 10 nM.
O=C1NCCc2c1cnn2-c1ccnc(Cc2ccc(OC(F)F)c(F)c2)c1 [Example 63, 1-(2-(4-(difluoromethoxy)-3-fluorobenzyl)pyridin-4-yl)-1,5,6,7-tetrahydro-4H-pyrazolo[4,3-c]pyridin-4-one] gave an Emax of 70% and an EC50 of 126 nM.
O=C1NCCc2c1cnn2-c1cc(Cc2cc(F)cc(C(F)(F)F)c2)cnn1 [Example 15, 1-(5-(3-fluoro-5-(trifluoromethyl)benzyl)pyridazin-3-yl)-1,5,6,7-tetrahydro-4H-pyrazolo[4,3-c]pyridin-4-one] was tested, and the Emax was 95% and the EC50 was 126 nM.
With O=C1NCCCc2c1nnn2-c1cc(Cc2cccc(C(F)(F)F)c2)ccn1 [Example 41, 1-(4-(3-(trifluoromethyl)benzyl)pyridin-2-yl)-5,6,7,8-tetrahydro-[1,2,3]triazolo[4,5-c]azepin-4(1H)-one] the Emax was 90% and the EC50 was 794 nM.
For O=C1NCCc2c1c(CO)nn2-c1cc(Cc2cc(F)cc(C(F)(F)F)c2)ccn1 [Example 113, 1-(4-(3-fluoro-5-(trifluoromethyl)benzyl)pyridin-2-yl)-3-(hydroxymethyl)-1,5,6,7-tetrahydro-4H-pyrazolo[4,3-c]pyridin-4-one], the Emax was 95% and the EC50 was 15.8 nM.
Cc1nn(-c2ccnc(C(O)c3cc(F)cc(C(F)(F)F)c3)c2)c2c1C(=O)NCC2 (single isomer, unassigned) [117 Isomer 1, 1-(2-((3-fluoro-5-(trifluoromethyl)phenyl)(hydroxy)methyl)pyridin-4-yl)-3-methyl-1,5,6,7-tetrahydro-4H-pyrazolo[4,3-c]pyridin-4-one] showed an Emax of 83% and an EC50 of 251 nM.
CC1Cc2c(cnn2-c2ccnc(Cc3cc(F)cc(C(F)(F)F)c3)c2)C(=O)N1 (centres unmarked) [Example 40, 1-(2-(3-fluoro-5-(trifluoromethyl)benzyl)pyridin-4-yl)-6-methyl-1,5,6,7-tetrahydro-4H-pyrazolo[4,3-c]pyridin-4-one] showed an Emax of 93% and an EC50 of 100 nM.
O=C1NCCc2c1cnn2-c1ccnc(Cc2cc(F)c(F)c(C(F)(F)F)c2)c1 [Example 64, 1-(2-(3,4-difluoro-5-(trifluoromethyl)benzyl)pyridin-4-yl)-1,5,6,7-tetrahydro-4H-pyrazolo[4,3-c]pyridin-4-one] gave an Emax of 94% and an EC50 of 20 nM.
For O=C1NCCOc2c1cnn2-c1cc(Cc2cccc(C(F)(F)F)c2)ccn1 [Example 13, 1-(4-(3-(trifluoromethyl)benzyl)pyridin-2-yl)-6,7-dihydro-1H-pyrazolo[4,3-f][1,4]oxazepin-4(5H)-one], the Emax was 89% and the EC50 was 25.1 nM.
With O=C1NCCc2c1cnn2-c1ccnc(Oc2cc(F)cc(C(F)(F)F)c2)c1 [Example 52, 1-(2-(3-fluoro-5-(trifluoromethyl)phenoxy)pyridin-4-yl)-1,5,6,7-tetrahydro-4H-pyrazolo[4,3-c]pyridin-4-one] the Emax was 69% and the EC50 was 1580 nM.
O=C1NCCc2c1cnn2-c1ccnc(C(O)c2cc(F)cc(C(F)(F)F)c2)c1 (centres unmarked) [Example 36, 1-(2-((3-fluoro-5-(trifluoromethyl)phenyl)(hydroxy)methyl)pyridin-4-yl)-1,5,6,7-tetrahydro-4H-pyrazolo[4,3-c]pyridin-4-one] showed an Emax of 92% and an EC50 of 501 nM.
With CN1CCc2nn(-c3cc(Cc4cccc(C(F)(F)F)c4)ccn3)nc2C1=O [Example 44, 5-methyl-2-(4-(3-(trifluoromethyl)benzyl)pyridin-2-yl)-2,5,6,7-tetrahydro-4H-[1,2,3]triazolo[4,5-c]pyridin-4-one] the Emax was 74% and the EC50 was 2000 nM.
O=C1NCCc2c1cnn2-c1ccnc(Cc2ccc(C(F)(F)F)c(F)c2)c1 [Example 54, 1-(2-(3-fluoro-4-(trifluoromethyl)benzyl)pyridin-4-yl)-1,5,6,7-tetrahydro-4H-pyrazolo[4,3-c]pyridin-4-one] showed an Emax of 63% and an EC50 of 398 nM.
In the case of Cc1nn(-c2ccnc(Cc3cc(Cl)c(F)c(C(F)(F)F)c3)c2)c2c1C(=O)NCC2 [Example 88, 1-(2-(3-chloro-4-fluoro-5-(trifluoromethyl)benzyl)pyridin-4-yl)-3-methyl-1,5,6,7-tetrahydro-4H-pyrazolo[4,3-c]pyridin-4-one], the Emax is reported as 100% and the EC50 is reported as 5.01 nM.
Work on O=C1NCCc2c1c(CO)nn2-c1ccnc(Cc2cc(F)cc(C(F)(F)F)c2)c1 [Example 114, 1-(2-(3-fluoro-5-(trifluoromethyl)benzyl)pyridin-4-yl)-3-(hydroxymethyl)-1,5,6,7-tetrahydro-4H-pyrazolo[4,3-c]pyridin-4-one] yielded an Emax of 93% and an EC50 of 39.8 nM.
COc1ccc(Cc2cc(-n3nc(C)c4c3CCNC4=O)ccn2)cn1 [Example 92, 1-(2-((6-methoxypyridin-3-yl)methyl)pyridin-4-yl)-3-methyl-1,5,6,7-tetrahydro-4H-pyrazolo[4,3-c]pyridin-4-one] gave an Emax of 74% and an EC50 of 631 nM.
